Test results published in patent US20110166223A1, “METHODS OF INHIBITING FGFR3 SIGNALING” (CEDARS-SINAI MEDICAL CENTER, priority 2008, published 2011).
“Also recorded” adds a separate entry of the source. Like-named read-outs stand apart in the source and are kept apart here.

Assays:
[1] = test system: FGF2/FGFR3-mediated growth-arrest of rat chondrosarcoma (RCS) cells; details: for effect on FGF2/FGFR3-mediated growth arrest (in words): FIGS. 1, 4c
Text: In this assay, the FGF2/FGFR3-mediated growth-arrest of rat chondrosarcoma (RCS) cells is used as a reporter, thus allowing for elimination of toxic compounds as false-positive hits (Krejci, et al., Invest New Drugs 2007, 25: 391-395).
Rat chondrosarcoma chondrocytes (RCS), chinese hamster ovary (CHO) cells and MM cell lines OPM2 and KMS11 were propagated in DMEM, Opti-MEM or RPMI media (Gibco, Gaitherbsburg, Md.), supplemented with 10% fetal bovine serum (Atlanta Biological, Nordeross, Ga.) and antibiotics. […] For the RCS growth-arrest experiments shown at FIGS. 1 and 4c, 1×10^4 RCS chondrocytes were seeded in 24-well tissue culture plates (Costar, Cambridge, Mass.), treated as indicated for 72 hours, and counted. FGF2 was obtained from R&D Systems (Minneapolis, Minn.); C-natriuretic peptide, suramin, NF023 and NF449 were from Calbiochem (San Diego, Calif.).

[2] = Water solubility (statement); type: physicochemical
[3] = target: T1, full-length FLAG-tagged K650E-FGFR3 (Homo sapiens, UniProt P22607, K650E); experiment: Cell-free K650E-FGFR3 kinase assay with STAT1 as substrate; type: biochemical; details: immunopurified from CHO cells; FIG. 6
T1 construct: using full-length FLAG-tagged K650E-FGFR3 that was expressed in CHO cells; made in house; host or cells: CHO cells (transient transfection, anti-FLAG immunoprecipitation)
T1 sequence (P22607 23-806 K650E): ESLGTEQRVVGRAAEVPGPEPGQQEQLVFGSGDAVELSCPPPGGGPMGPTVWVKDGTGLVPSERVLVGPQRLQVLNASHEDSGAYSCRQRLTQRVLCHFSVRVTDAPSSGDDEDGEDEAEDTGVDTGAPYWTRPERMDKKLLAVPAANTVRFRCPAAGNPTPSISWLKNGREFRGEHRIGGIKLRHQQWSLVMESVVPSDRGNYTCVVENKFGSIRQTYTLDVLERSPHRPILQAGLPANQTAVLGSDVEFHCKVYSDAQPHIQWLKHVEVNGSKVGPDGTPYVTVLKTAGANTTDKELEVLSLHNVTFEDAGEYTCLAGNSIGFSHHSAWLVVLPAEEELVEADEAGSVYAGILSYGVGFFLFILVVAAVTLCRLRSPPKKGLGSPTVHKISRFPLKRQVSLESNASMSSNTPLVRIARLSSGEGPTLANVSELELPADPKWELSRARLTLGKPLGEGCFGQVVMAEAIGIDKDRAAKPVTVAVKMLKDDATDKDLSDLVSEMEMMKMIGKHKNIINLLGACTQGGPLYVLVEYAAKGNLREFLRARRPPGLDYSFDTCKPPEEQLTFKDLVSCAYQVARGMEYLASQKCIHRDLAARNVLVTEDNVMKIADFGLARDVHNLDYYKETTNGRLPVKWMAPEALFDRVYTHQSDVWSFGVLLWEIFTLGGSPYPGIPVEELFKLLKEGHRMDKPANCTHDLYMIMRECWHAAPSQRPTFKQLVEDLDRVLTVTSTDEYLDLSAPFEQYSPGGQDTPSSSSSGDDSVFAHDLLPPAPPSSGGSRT
Experimental: FIG. 6, in accordance with an embodiment herein, depicts 4,4′,4″,4′″-[carbonyl-bis[imino-5,1,3-benzenetriyl bis-{carbonylimino}]]tetrakis-{benzene-1,3-disulfonic acid} inhibits K650E-FGFR3 in a kinase assay. Cell-free K650E-FGFR3 kinase assays were carried-out using full-length FLAG-tagged K650E-FGFR3 that was expressed in CHO cells, purified by immunoprecipitation with FLAG antibody and subjected to a kinase reaction with recombinant STAT1 as a substrate and 4,4′,4″,4′″-[carbonyl-bis[imino-5,1,3-benzenetriyl bis-{carbonylimino}]]tetrakis-{benzene-1,3-disulfonic acid} added to the kinase reaction. Cells transfected with plasmid encoding green fluorescent protein (GFP) serve as a negative control for the immunoprecipitation. […]
OPM2 and KMS11 cells were lysed in ice-cold immunoprecipitation buffer (50 mM Tris-HCl pH 7.4, 150 mM NaCl, 0.5% NP-40, 1 mM EDTA, 25 mM NaF) supplemented with proteinase inhibitors and 10 mM sodium orthovanadate. […] Western blotting signal was quantified by determining the integrated optical density (I.O.D.) of a given band using Scion Image software (Scion Corporation, Frederick, Mass.). […] FGFR3-mediated phosphorylation of STAT1 was detected by western blotting with P-STAT1^Y701 antibody (Cell Signaling). […]

[4] = test system: limb growth and size of cultured embryos; experiment: Embryo limb culture; details: 30 μM; embryos cultured for six (6) days; FIG. 8
Text: FIG. 8, in accordance with an embodiment herein, depicts embryos cultured for six (6) days.

O=C(Nc1cc(C(=O)Nc2ccc(S(=O)(=O)O)cc2S(=O)(=O)O)cc(C(=O)Nc2ccc(S(=O)(=O)O)cc2S(=O)(=O)O)c1)Nc1cc(C(=O)Nc2ccc(S(=O)(=O)O)cc2S(=O)(=O)O)cc(C(=O)Nc2ccc(S(=O)(=O)O)cc2S(=O)(=O)O)c1 [NF449, 4,4′,4″,4′″-[carbonyl-bis[imino-5,1,3-benzenetriylbis-{carbonylimino}]]tetrakis-{benzene-1,3-disulfonic acid}]
rescue (reversal) of the growth-arrest phenotype ([1]; 25 μM NF449, detailed cell-growth experiments, FIG. 1a, 72 hours): ~70% | active concentration range in the RCS growth-arrest assay ([1]; FGF2 5 ng/ml, 72 hours, FIG. 1a): 8 to 30 µM | rescue of the FGF2-mediated RCS growth-arrest ([1]; FIG. 1b, each agent alone, 72 hours): ~50% | effect on FGF2/FGFR3-mediated growth arrest (in words) ([1]; RCS chondrocytes): more potently that CNP | effect on FGF2/FGFR3-mediated growth arrest (in words) ([1]; RCS chondrocytes, listed as 4,4′,4″,4′″-[carbonyl-bis[imino-5,1,3-benzenetriyl bis-{carbonylimino}]]tetrakis): reversal of this phenotype | cell toxicity ([1]; RCS chondrocytes, throughout active concentration range (8-30 μM), listed as 4,4′,4″,4′″-[carbonyl-bis[imino-5,1,3-benzenetriyl bis-{carbonylimino}]]tetrakis): lack of significant | concentration range inhibiting RCS growth arrest ([1]; comparison with SU5402): 2 to 20 µM | water solubility [2]: water-soluble | effect on K650E-FGFR3 kinase activity (Y701 phosphorylation of STAT1) [3]: inhibitory effect; also recorded: inhibited K650E-FGFR3 kinase activity | limb growth and size [4]: greater limb growth and size
